pIC50: −log10 of the molar value.
The compounds below were run against CDK2/Cyclin E1 (Homo sapiens (Human), UniProt P24941) (assay: CDK2/Cyclin E1 HTRF enzyme activity assay). Settings: 1 mM ATP.
Format: biochemical
Protocol: Assays are conducted in white 384-well polystyrene plates in a final reaction volume of 8 μL. […] HTRF signals are read after 1 hour at room temperature on a PHERAstar FS plate reader (BMG Labtech). Data is analyzed with IDBS XLFit and GraphPad Prism 5.0 software using a three or four parameter dose response curve to determine IC50 for each compound.

pIC50, > 7.30:
CO[C@@H]1CCN(CCCS(=O)(=O)N2CC[C@H](Nc3ncc(C(F)(F)F)c(-c4cnn(CC(C)(C)O)c4)n3)[C@H](F)C2)C1 [Example 206, 1-(4-(2-(((3R,4S)-3-Fluoro-1-((3-((R)-3-methoxypyrrolidin-1-yl)propyl)sulfonyl)piperidin-4-yl)amino)-5-(trifluoromethyl)pyrimidin-4-yl)-1H-pyrazol-1-yl)-2-methylpropan-2-ol]
COC1CCN(CCCS(=O)(=O)N2CC[C@H](Nc3ncc(C(F)(F)F)c(-c4cnn(CC(C)(C)O)c4)n3)[C@H](F)C2)CC1 [Example 207, 1-(4-(2-(((3R,4S)-3-Fluoro-1-((3-(4-methoxypiperidin-1-yl)propyl)sulfonyl)piperidin-4-yl)amino)-5-(trifluoromethyl)pyrimidin-4-yl)-1H-pyrazol-1-yl)-2-methylpropan-2-ol]
CC(C)(O)Cn1cc(-c2nc(N[C@H]3CCN(S(=O)(=O)CCCN4CCC(O)CC4)C[C@H]3F)ncc2C(F)(F)F)cn1 [Example 208, 1-(3-(((3R,4S)-3-Fluoro-4-((4-(1-(2-hydroxy-2-methylpropyl)-1H-pyrazol-4-yl)-5-(trifluoromethyl)pyrimidin-2-yl)amino)piperidin-1-yl)sulfonyl)propyl)piperidin-4-ol]
CN1CCN(CCCS(=O)(=O)N2CC[C@H](Nc3ncc(C(F)(F)F)c(-c4cnn(CC(C)(C)O)c4)n3)[C@H](F)C2)CC1 [Example 209, 1-(4-(2-(((3R,4S)-3-Fluoro-1-((3-(4-methylpiperazin-1-yl)propyl)sulfonyl)piperidin-4-yl)amino)-5-(trifluoromethyl)pyrimidin-4-yl)-1H-pyrazol-1-yl)-2-methylpropan-2-ol]
CCN1CCN(CCCS(=O)(=O)N2CC[C@H](Nc3ncc(C(F)(F)F)c(-c4cnn(CC(C)(C)O)c4)n3)[C@H](F)C2)CC1 [Example 210, 1-(4-(2-(((3R,45)-1-((3-(4-Ethylpiperazin-1-yl)propyl)sulfonyl)-3-fluoropiperidin-4-yl)amino)-5-(trifluoromethyl)pyrimidin-4-yl)-1H-pyrazol-1-yl)-2-methylpropan-2-ol]
CN1C[C@@H]2C[C@H]1CN2CCCS(=O)(=O)N1CC[C@H](Nc2ncc(C(F)(F)F)c(-c3cnn(CC(C)(C)O)c3)n2)[C@H](F)C1 [Example 211, 1-(4-(2-(((3R,4S)-3-Fluoro-1-((3-((1S,4S)-5-methyl-2,5-diazabicyclo[2.2.1]heptan-2-yl)propyl)sulfonyl)piperidin-4-yl)amino)-5-(trifluoromethyl)pyrimidin-4-yl)-1H-pyrazol-1-yl)-2-methylpropan-2-ol]
CN1CCN(CCCS(=O)(=O)N2CC[C@H](Nc3ncc(C(F)(F)F)c(-c4cnn(CC(C)(C)O)c4)n3)[C@H](F)C2)CC1=O [Example 212, 4-(3-(((3R,4S)-3-Fluoro-4-((4-(1-(2-hydroxy-2-methylpropyl)-1H-pyrazol-4-yl)-5-(trifluoromethyl)pyrimidin-2-yl)amino)piperidin-1-yl)sulfonyl)propyl)-1-methylpiperazin-2-one]
CCN(CC)CCCS(=O)(=O)N1CCC(Nc2ncc(C#N)c(-c3cnn(CC(C)(C)O)c3)n2)CC1 [Example 213, 2-((1-((3-(Diethylamino)propyl)sulfonyl)piperidin-4-yl)amino)-4-(1-(2-hydroxy-2-methylpropyl)-1H-pyrazol-4-yl)pyrimidine-5-carbonitrile]
CC(C)(O)Cn1cc(-c2nc(NC3CCN(S(=O)(=O)CCCN4CCCC4)CC3)ncc2C#N)cn1 [Example 214, 4-(1-(2-Hydroxy-2-methylpropyl)-1H-pyrazol-4-yl)-2-((1-((3-(pyrrolidin-1-yl)propyl)sulfonyl)piperidin-4-yl)amino)pyrimidine-5-carbonitrile]
CC(C)(O)Cn1cc(-c2nc(NC3CCN(S(=O)(=O)CCCN4CCCCC4)CC3)ncc2C#N)cn1 [Example 215, 4-(1-(2-Hydroxy-2-methylpropyl)-1H-pyrazol-4-yl)-2-((1-((3-(piperidin-1-yl)propyl)sulfonyl)piperidin-4-yl)amino)pyrimidine-5-carbonitrile]
CCN(CC)CCCCS(=O)(=O)N1CCC(Nc2ncc(C#N)c(-c3cnn(CC(C)(C)O)c3)n2)CC1 [Example 216, 2-((1-((4-(Diethylamino)butyl)sulfonyl)piperidin-4-yl)amino)-4-(1-(2-hydroxy-2-methylpropyl)-1H-pyrazol-4-yl)pyrimidine-5-carbonitrile]
CC(C)(O)Cn1cc(-c2nc(NC3CCN(S(=O)(=O)CCCCN4CCCC4)CC3)ncc2C#N)cn1 [Example 217, 4-(1-(2-Hydroxy-2-methylpropyl)-1H-pyrazol-4-yl)-2-((1-((4-(pyrrolidin-1-yl)butyl)sulfonyl)piperidin-4-yl)amino)pyrimidine-5-carbonitrile]
CC(C)(O)Cn1cc(-c2nc(NC3CCN(S(=O)(=O)CCCCN4CCCCC4)CC3)ncc2C#N)cn1 [Example 218, 4-(1-(2-Hydroxy-2-methylpropyl)-1H-pyrazol-4-yl)-2-((1-((4-(piperidin-1-yl)butyl)sulfonyl)piperidin-4-yl)amino)pyrimidine-5-carbonitrile]
CO[C@H]1CCN(CCCS(=O)(=O)N2CCC(Nc3ncc(C(F)(F)F)c(-c4cnn(CC(C)(C)O)c4)n3)CC2)C1 [Example 219, (S)-1-(4-(2-((1-((3-(3-Methoxypyrrolidin-1-yl)propyl)sulfonyl)piperidin-4-yl)amino)-5-(trifluoromethyl)pyrimidin-4-yl)-1H-pyrazol-1-yl)-2-methylpropan-2-ol]
CO[C@@H]1CCN(CCCS(=O)(=O)N2CCC(Nc3ncc(C(F)(F)F)c(-c4cnn(CC(C)(C)O)c4)n3)CC2)C1 [Example 220, (R)-1-(4-(2-((1-((3-(3-Methoxypyrrolidin-1-yl)propyl)sulfonyl)piperidin-4-yl)amino)-5-(trifluoromethyl)pyrimidin-4-yl)-1H-pyrazol-1-yl)-2-methylpropan-2-ol]
COC[C@@H]1CCN1CCCS(=O)(=O)N1CCC(Nc2ncc(C(F)(F)F)c(-c3cnn(CC(C)(C)O)c3)n2)CC1 [Example 221, (S)-1-(4-(2-((1-((3-(2-(Methoxymethyl)azetidin-1-yl)propyl)sulfonyl)piperidin-4-yl)amino)-5-(trifluoromethyl)pyrimidin-4-yl)-1H-pyrazol-1-yl)-2-methylpropan-2-ol]
CC(C)(O)Cn1cc(-c2nc(NC3CCN(S(=O)(=O)CCCN4C[C@@H]5C[C@H]4CO5)CC3)ncc2C(F)(F)F)cn1 [Example 222, 1-(4-(2-((1-((3-((1S,4S)-2-Oxa-5-azabicyclo[2.2.1]heptan-5-yl)propyl)sulfonyl)piperidin-4-yl)amino)-5-(trifluoromethyl)pyrimidin-4-yl)-1H-pyrazol-1-yl)-2-methylpropan-2-ol]
CC(C)(O)Cn1cc(-c2nc(NC3CCN(S(=O)(=O)CCCN4CC[C@@](C)(O)C4)CC3)ncc2C(F)(F)F)cn1 [Example 223, (R)-1-(3-((4-((4-(1-(2-Hydroxy-2-methylpropyl)-1H-pyrazol-4-yl)-5-(trifluoromethyl)pyrimidin-2-yl)amino)piperidin-1-yl)sulfonyl)propyl)-3-methylpyrrolidin-3-ol]
CC(C)(O)Cn1cc(-c2nc(NC3CCN(S(=O)(=O)CCCN4CC[C@@H](O)C4)CC3)ncc2C(F)(F)F)cn1 [Example 224, (R)-1-(3-((4-((4-(1-(2-Hydroxy-2-methylpropyl)-1H-pyrazol-4-yl)-5-(trifluoromethyl)pyrimidin-2-yl)amino)piperidin-1-yl)sulfonyl)propyl)pyrrolidin-3-ol]
CC(C)(O)Cn1cc(-c2nc(NC3CCN(S(=O)(=O)CCCN4CC(O)C4)CC3)ncc2C(F)(F)F)cn1 [Example 225, 1-(3-((4-((4-(1-(2-Hydroxy-2-methylpropyl)-1H-pyrazol-4-yl)-5-(trifluoromethyl)pyrimidin-2-yl)amino)piperidin-1-yl)sulfonyl)propyl)azetidin-3-ol]
CC(C)(O)Cn1cc(-c2nc(NC3CCN(S(=O)(=O)CCCNC4CC4)CC3)ncc2C(F)(F)F)cn1 [Example 226, 1-(4-(2-((1-((3-(Cyclopropylamino)propyl)sulfonyl)piperidin-4-yl)amino)-5-(trifluoromethyl)pyrimidin-4-yl)-1H-pyrazol-1-yl)-2-methylpropan-2-ol]
CC(C)(O)Cn1cc(-c2nc(NC3CCN(S(=O)(=O)CCO)CC3)ncc2C(F)(F)F)cn1 [Example 227, 1-(4-(2-((1-((2-Hydroxyethyl)sulfonyl)piperidin-4-yl)amino)-5-(trifluoromethyl)pyrimidin-4-yl)-1H-pyrazol-1-yl)-2-methylpropan-2-ol]
Cc1cc(CN2CCNCC2)ccc1-n1cc(-c2nc(NC3CCN(S(=O)(=O)c4cn(C)cn4)CC3)ncc2C(F)(F)F)cn1 [Example 228, N-(1-((1-Methyl-1H-imidazol-4-yl)sulfonyl)piperidin-4-yl)-4-(1-(2-methyl-4-(piperazin-1-ylmethyl)phenyl)-1H-pyrazol-4-yl)-5-(trifluoromethyl)pyrimidin-2-amine]
Cc1cc(CN2CCN(C)[C@@H](CO)C2)ccc1-n1cc(-c2nc(NC3CCN(S(=O)(=O)c4cn(C)cn4)CC3)ncc2C(F)(F)F)cn1 [Example 229, (R)-(1-Methyl-4-(3-methyl-4-(4-(2-((1-((1-methyl-1H-imidazol-4-yl)sulfonyl)piperidin-4-yl)amino)-5-(trifluoromethyl)pyrimidin-4-yl)-1H-pyrazol-1-yl)benzyl)piperazin-2-yl)methanol]
